Assay results: ChEMBL document CHEMBL3045600, “Synthesis and Fungicidal Activities of Phenoxyphenyl Alkoxyiminoacetamide Derivatives” (J Pestic Sci, 1998)

Experiments:
Assay type in all cases: functional
Thanatephorus cucumeris [1] = experiment: Fungicidal activity against Thanatephorus cucumeris assessed as rice sheath blight disease control at 125 ppm foliar application for 24 hr before inoculation at 26 +- 2 measured after 5 days by preventive manner
[2] = test system: Pseudoperonospora cubensis; experiment: Fungicidal activity against Pseudoperonospora cubensis assessed as cucumber downy mildew disease control at 31.3 ppm foliar application 24 hr before inoculation on upper surface of leaf by preventive manner
Thanatephorus cucumeris [3] = experiment: Fungicidal activity against Thanatephorus cucumeris assessed as rice sheath blight disease control at 7.8 ppm foliar application for 24 hr before inoculation at 26 +- 2 measured after 5 days by preventive manner
[4] = test system: Pseudoperonospora cubensis; experiment: Fungicidal activity against Pseudoperonospora cubensis assessed as cucumber downy mildew disease control at 7.8 ppm foliar application 24 hr before inoculation on upper surface of leaf by preventive manner
Podosphaera fuliginea [5] = experiment: Fungicidal activity against Podosphaera fuliginea assessed as cucumber powdery mildew control under greenhouse at 125 ppm foliar application 24 hr before inoculation on upper surface of leaf at 23 +/- 2 degC by preventive manner
Thanatephorus cucumeris [6] = experiment: Fungicidal activity against Thanatephorus cucumeris assessed as rice sheath blight disease control at 31.3 ppm foliar application for 24 hr before inoculation at 26 +- 2 measured after 5 days by preventive manner
Podosphaera fuliginea [7] = experiment: Fungicidal activity against Podosphaera fuliginea assessed as cucumber powdery mildew control under greenhouse at 31.3 ppm foliar application 24 hr before inoculation on upper surface of leaf at 23 +/- 2 degC by preventive manner
Podosphaera fuliginea [8] = experiment: Fungicidal activity against Podosphaera fuliginea assessed as cucumber powdery mildew control under greenhouse at 7.8 ppm foliar application 24 hr before inoculation on upper surface of leaf at 23 +/- 2 degC by preventive manner
[9] = test system: Pseudoperonospora cubensis; experiment: Fungicidal activity against Pseudoperonospora cubensis assessed as cucumber downy mildew disease control at 125 ppm foliar application 24 hr before inoculation on upper surface of leaf by preventive manner
[10] = test system: Pseudoperonospora cubensis; experiment: Fungicidal activity against Pseudoperonospora cubensis assessed as cucumber downy mildew disease control at 2 ppm foliar application 24 hr before inoculation on upper surface of leaf by preventive manner
Podosphaera fuliginea [11] = experiment: Fungicidal activity against Podosphaera fuliginea assessed as cucumber powdery mildew control under greenhouse at 2 ppm foliar application 24 hr before inoculation on upper surface of leaf at 23 +/- 2 degC by preventive manner
Thanatephorus cucumeris [12] = experiment: Fungicidal activity against Thanatephorus cucumeris assessed as rice sheath blight disease control at 2 ppm foliar application for 24 hr before inoculation at 26 +- 2 measured after 5 days by preventive manner

Molecule `CNC(=O)/C(=N/OC)c1cc(C)ccc1Oc1ccccc1` has an Activity (Thanatephorus cucumeris [1]) of 70%, an Activity [2] of 70% and an Activity (Thanatephorus cucumeris [3]) of 70%. The Activity [4] was 70%, the Activity (Podosphaera fuliginea [5]) was 70% and the Activity (Thanatephorus cucumeris [6]) was 70%. It also gave an Activity (Podosphaera fuliginea [7]) of 70%, an Activity (Podosphaera fuliginea [8]) of 70% and an Activity [9] of 70%. For the same molecule, the Activity [10] was 70%, the Activity (Podosphaera fuliginea [11]) was 70% and the Activity (Thanatephorus cucumeris [12]) was 70%.
Molecule `CCO/N=C(/C(=O)NC)c1ccccc1Oc1ccccc1` has an Activity (Thanatephorus cucumeris [1]) of less than 70%, an Activity [2] of less than 70% and an Activity (Thanatephorus cucumeris [3]) of less than 70%. The Activity [4] was less than 70%, the Activity (Podosphaera fuliginea [5]) was 70% and the Activity (Thanatephorus cucumeris [6]) was less than 70%. It also gave an Activity (Podosphaera fuliginea [7]) of 70%, an Activity (Podosphaera fuliginea [8]) of 70% and an Activity [9] of less than 70%. It also gave an Activity [10] of less than 70%, an Activity (Podosphaera fuliginea [11]) of 70% and an Activity (Thanatephorus cucumeris [12]) of less than 70%.
With `CNC(=O)/C(=N/OC)c1ccccc1/C=C/c1ccccc1` the Activity (Thanatephorus cucumeris [1]) was less than 70%, the Activity [2] was 70% and the Activity (Thanatephorus cucumeris [3]) was less than 70%. For the same molecule, the Activity [4] was 70%, the Activity (Podosphaera fuliginea [5]) was 70% and the Activity (Thanatephorus cucumeris [6]) was less than 70%. For the same molecule, the Activity (Podosphaera fuliginea [7]) was 70%, the Activity (Podosphaera fuliginea [8]) was 70% and the Activity [9] was 70%. The Activity [10] was 70%, the Activity (Podosphaera fuliginea [11]) was 70% and the Activity (Thanatephorus cucumeris [12]) was less than 70%.
`CNC(=O)/C(=N/OC)c1ccccc1/C=C\c1ccccc1` showed an Activity (Thanatephorus cucumeris [1]) of 70%, an Activity [2] of 70% and an Activity (Thanatephorus cucumeris [3]) of 70%. The Activity [4] was 70%, the Activity (Podosphaera fuliginea [5]) was 70% and the Activity (Thanatephorus cucumeris [6]) was 70%. The Activity (Podosphaera fuliginea [7]) was 70%, the Activity (Podosphaera fuliginea [8]) was 70% and the Activity [9] was 70%. The Activity [10] was 70%, the Activity (Podosphaera fuliginea [11]) was 70% and the Activity (Thanatephorus cucumeris [12]) was 70%.
`CNC(=O)/C(=N/OC)c1cccc(Oc2ccccc2)c1` was tested, and the Activity (Thanatephorus cucumeris [1]) was 70%, the Activity [2] was less than 70% and the Activity (Thanatephorus cucumeris [3]) was 70%. It also gave an Activity [4] of less than 70%, an Activity (Podosphaera fuliginea [5]) of 70% and an Activity (Thanatephorus cucumeris [6]) of 70%. The Activity (Podosphaera fuliginea [7]) was 70%, the Activity (Podosphaera fuliginea [8]) was 70% and the Activity [9] was less than 70%. For the same molecule, the Activity [10] was less than 70%, the Activity (Podosphaera fuliginea [11]) was 70% and the Activity (Thanatephorus cucumeris [12]) was 70%.
`CNC(=O)/C(=N/OC)c1ccccc1NCc1ccccc1` gave an Activity (Thanatephorus cucumeris [1]) of less than 70%, an Activity [2] of less than 70% and an Activity (Thanatephorus cucumeris [3]) of less than 70%. For the same molecule, the Activity [4] was less than 70%, the Activity (Podosphaera fuliginea [5]) was less than 70% and the Activity (Thanatephorus cucumeris [6]) was less than 70%. For the same molecule, the Activity (Podosphaera fuliginea [7]) was less than 70%, the Activity (Podosphaera fuliginea [8]) was less than 70% and the Activity [9] was less than 70%. For the same molecule, the Activity [10] was less than 70%, the Activity (Podosphaera fuliginea [11]) was less than 70% and the Activity (Thanatephorus cucumeris [12]) was less than 70%.
`CNC(=O)/C(=N/OC)c1ccccc1CCc1ccccc1` gave an Activity (Thanatephorus cucumeris [1]) of less than 70%, an Activity [2] of less than 70% and an Activity (Thanatephorus cucumeris [3]) of less than 70%. For the same molecule, the Activity [4] was less than 70%, the Activity (Podosphaera fuliginea [5]) was 70% and the Activity (Thanatephorus cucumeris [6]) was less than 70%. It also gave an Activity (Podosphaera fuliginea [7]) of 70%, an Activity (Podosphaera fuliginea [8]) of 70% and an Activity [9] of less than 70%. It also gave an Activity [10] of less than 70%, an Activity (Podosphaera fuliginea [11]) of 70% and an Activity (Thanatephorus cucumeris [12]) of less than 70%.
`CNC(=O)/C(=N/OC)c1ccccc1COc1ccccc1` showed an Activity (Thanatephorus cucumeris [1]) of less than 70%, an Activity [2] of less than 70% and an Activity (Thanatephorus cucumeris [3]) of less than 70%. The Activity [4] was less than 70%, the Activity (Podosphaera fuliginea [5]) was 70% and the Activity (Thanatephorus cucumeris [6]) was less than 70%. The Activity (Podosphaera fuliginea [7]) was 70%, the Activity (Podosphaera fuliginea [8]) was 70% and the Activity [9] was less than 70%. For the same molecule, the Activity [10] was less than 70%, the Activity (Podosphaera fuliginea [11]) was 70% and the Activity (Thanatephorus cucumeris [12]) was less than 70%.
`CNC(=O)/C(=N/OC)c1ccccc1OCc1ccccc1` gave an Activity (Thanatephorus cucumeris [1]) of 70%, an Activity [2] of 70% and an Activity (Thanatephorus cucumeris [3]) of 70%. It also gave an Activity [4] of 70%, an Activity (Podosphaera fuliginea [5]) of 70% and an Activity (Thanatephorus cucumeris [6]) of 70%. For the same molecule, the Activity (Podosphaera fuliginea [7]) was 70%, the Activity (Podosphaera fuliginea [8]) was 70% and the Activity [9] was 70%. It also gave an Activity [10] of 70%, an Activity (Podosphaera fuliginea [11]) of 70% and an Activity (Thanatephorus cucumeris [12]) of 70%.
For `CNC(=O)/C(=N/OC)c1cc(F)ccc1Oc1ccccc1`, the Activity (Thanatephorus cucumeris [1]) was 70%, the Activity [2] was 70% and the Activity (Thanatephorus cucumeris [3]) was 70%. The Activity [4] was 70%, the Activity (Podosphaera fuliginea [5]) was 70% and the Activity (Thanatephorus cucumeris [6]) was 70%. For the same molecule, the Activity (Podosphaera fuliginea [7]) was 70%, the Activity (Podosphaera fuliginea [8]) was 70% and the Activity [9] was 70%. It also gave an Activity [10] of 70%, an Activity (Podosphaera fuliginea [11]) of 70% and an Activity (Thanatephorus cucumeris [12]) of 70%.
`CNC(=O)/C(=N/OC)c1ccccc1Sc1ccccc1` gave an Activity (Thanatephorus cucumeris [1]) of 70%, an Activity [2] of 70% and an Activity (Thanatephorus cucumeris [3]) of 70%. The Activity [4] was 70%, the Activity (Podosphaera fuliginea [5]) was 70% and the Activity (Thanatephorus cucumeris [6]) was 70%. The Activity (Podosphaera fuliginea [7]) was 70%, the Activity (Podosphaera fuliginea [8]) was 70% and the Activity [9] was 70%. It also gave an Activity [10] of 70%, an Activity (Podosphaera fuliginea [11]) of 70% and an Activity (Thanatephorus cucumeris [12]) of 70%.
With `CNC(=O)/C(=N/OC)c1ccccc1C(=O)Oc1ccccc1` the Activity (Thanatephorus cucumeris [1]) was less than 70%, the Activity [2] was less than 70% and the Activity (Thanatephorus cucumeris [3]) was less than 70%. It also gave an Activity [4] of less than 70%, an Activity (Podosphaera fuliginea [5]) of 70% and an Activity (Thanatephorus cucumeris [6]) of less than 70%. For the same molecule, the Activity (Podosphaera fuliginea [7]) was 70%, the Activity (Podosphaera fuliginea [8]) was 70% and the Activity [9] was less than 70%. It also gave an Activity [10] of less than 70%, an Activity (Podosphaera fuliginea [11]) of 70% and an Activity (Thanatephorus cucumeris [12]) of less than 70%.
Work on `CO/N=C(/C(=O)N(C)C)c1ccccc1Oc1ccccc1` yielded an Activity (Thanatephorus cucumeris [1]) of 70%, an Activity [2] of less than 70% and an Activity (Thanatephorus cucumeris [3]) of 70%. For the same molecule, the Activity [4] was less than 70%, the Activity (Podosphaera fuliginea [5]) was 70% and the Activity (Thanatephorus cucumeris [6]) was 70%. For the same molecule, the Activity (Podosphaera fuliginea [7]) was 70%, the Activity (Podosphaera fuliginea [8]) was 70% and the Activity [9] was less than 70%. The Activity [10] was less than 70%, the Activity (Podosphaera fuliginea [11]) was 70% and the Activity (Thanatephorus cucumeris [12]) was 70%.
`CNC(=O)/C(=N/OC(C)C)c1ccccc1Oc1ccccc1` was tested, and the Activity (Thanatephorus cucumeris [1]) was less than 70%, the Activity [2] was less than 70% and the Activity (Thanatephorus cucumeris [3]) was less than 70%. The Activity [4] was less than 70%, the Activity (Podosphaera fuliginea [5]) was less than 70% and the Activity (Thanatephorus cucumeris [6]) was less than 70%. For the same molecule, the Activity (Podosphaera fuliginea [7]) was less than 70%, the Activity (Podosphaera fuliginea [8]) was less than 70% and the Activity [9] was less than 70%. It also gave an Activity [10] of less than 70%, an Activity (Podosphaera fuliginea [11]) of less than 70% and an Activity (Thanatephorus cucumeris [12]) of less than 70%.
`CNC(=O)/C(=N/OC)c1ccc(Oc2ccccc2)cc1` was tested, and the Activity (Thanatephorus cucumeris [1]) was less than 70%, the Activity [2] was less than 70% and the Activity (Thanatephorus cucumeris [3]) was less than 70%. The Activity [4] was less than 70%, the Activity (Podosphaera fuliginea [5]) was 70% and the Activity (Thanatephorus cucumeris [6]) was less than 70%. For the same molecule, the Activity (Podosphaera fuliginea [7]) was 70%, the Activity (Podosphaera fuliginea [8]) was 70% and the Activity [9] was less than 70%. The Activity [10] was less than 70%, the Activity (Podosphaera fuliginea [11]) was 70% and the Activity (Thanatephorus cucumeris [12]) was less than 70%.
Work on `CNC(=O)/C(=N/OC)c1c(OC)cccc1Oc1ccccc1` yielded an Activity (Thanatephorus cucumeris [1]) of less than 70%, an Activity [2] of less than 70% and an Activity (Thanatephorus cucumeris [3]) of less than 70%. It also gave an Activity [4] of less than 70%, an Activity (Podosphaera fuliginea [5]) of less than 70% and an Activity (Thanatephorus cucumeris [6]) of less than 70%. For the same molecule, the Activity (Podosphaera fuliginea [7]) was less than 70%, the Activity (Podosphaera fuliginea [8]) was less than 70% and the Activity [9] was less than 70%. For the same molecule, the Activity [10] was less than 70%, the Activity (Podosphaera fuliginea [11]) was less than 70% and the Activity (Thanatephorus cucumeris [12]) was less than 70%.
For `CO/N=C(/C(N)=O)c1ccccc1Oc1ccccc1`, the Activity (Thanatephorus cucumeris [1]) was less than 70%, the Activity [2] was less than 70% and the Activity (Thanatephorus cucumeris [3]) was less than 70%. It also gave an Activity [4] of less than 70%, an Activity (Thanatephorus cucumeris [6]) of less than 70% and an Activity [9] of less than 70%. It also gave an Activity [10] of less than 70% and an Activity (Thanatephorus cucumeris [12]) of less than 70%.
`CNC(=O)/C(=N/O)c1ccccc1Oc1ccccc1` was tested, and the Activity (Thanatephorus cucumeris [1]) was less than 70%, the Activity [2] was less than 70% and the Activity (Thanatephorus cucumeris [3]) was less than 70%. It also gave an Activity [4] of less than 70%, an Activity (Podosphaera fuliginea [5]) of less than 70% and an Activity (Thanatephorus cucumeris [6]) of less than 70%. The Activity (Podosphaera fuliginea [7]) was less than 70%, the Activity (Podosphaera fuliginea [8]) was less than 70% and the Activity [9] was less than 70%. It also gave an Activity [10] of less than 70%, an Activity (Podosphaera fuliginea [11]) of less than 70% and an Activity (Thanatephorus cucumeris [12]) of less than 70%.
